Source: US7314863B2, “Cyclic peptidomimetic urokinase receptor antagonists” (Wilex AG, priority 1999, dated 2008)
Positions of bridges follow the written chain, without caps; N, C: chain ends. Non-standard residues stand in square brackets, D forms with d. Residues, ends and D or L forms follow the SMILES beside them. Tic = O=C(O)[C@@H]1Cc2ccccc2CN1; Nle = CCCC[C@H](N)C(=O)O; Orn = NCCC[C@H](N)C(=O)O; Dab = NCC[C@H](N)C(=O)O; Dap = NC[C@H](N)C(=O)O

Experiments:
uPAR = target: T1, uPAR (Homo sapiens, UniProt Q03405); assay: Flow cytometry: inhibition of FITC-pro-uPA binding to uPAR on PMA-stimulated U937 cells; conditions: for IC50: FIG. 1a, read-out: IC50 (inhibition of uPA/uPAR interaction) (converted); for affinity/activity for uPAR lower than that of ATF: relative to ATF
T1 construct: human promyeloid cell line U937 as source for cellular native uPAR; endogenous in cells; host or cells: U937 cells stimulated with PMA
T1 sequence (Q03405 23-305): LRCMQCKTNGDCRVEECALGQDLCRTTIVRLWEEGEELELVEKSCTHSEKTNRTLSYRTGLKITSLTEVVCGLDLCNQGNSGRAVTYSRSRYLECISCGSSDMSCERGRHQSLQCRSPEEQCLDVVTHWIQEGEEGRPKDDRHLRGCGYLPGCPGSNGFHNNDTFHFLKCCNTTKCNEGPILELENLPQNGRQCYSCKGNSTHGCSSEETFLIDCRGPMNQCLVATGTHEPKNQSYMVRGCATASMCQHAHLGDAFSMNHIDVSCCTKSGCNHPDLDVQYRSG
Protocol: The capacity of the synthetic peptides for inhibiting uPA/uPAR interaction was determined using the human promyeloid cell line U937 as source for cellular native uPAR by means of flow cytometry on a FACScan flow cytometer (Becton-Dickinson, Heidelberg, Germany) (Chuchulowski et al., Fibrinolysis 6, Suppl. 4 (1992), 95-102; Magdolen et al., (1996), supra). The U937 cells were stimulated with […] phorbol 12-myristate 13-acetate (PMA) for 48 h. After stimulation with PMA, the U937 cells express considerable amounts of cell surface-associated uPAR.
The stimulated cells were treated with 50 m glycine-HCl, 0.1 NaCl, pH 3.6 at room temperature for 1 min, in order to dissociate endogenous receptor-bound uPA. Subsequently, the acidic buffer was neutralized by 0.5 M HEPES, 100 mM NaCl, pH 7.5. The cells were then immediately washed twice with PBS/0.1% bovine serum albumin (BSA) and centrifuged at 300×g at room temperature for 10 min. The cells were resuspended in PBS/0.1% BSA, adjusted to a concentration of 10^6 cells per ml and incubated simultaneously with 1.6 ng of FITC-conjugated pro-uPA and different amounts of the synthetic peptides at room temperature for 45 min. Prior to analysis, propidium iodide, a fluorescent dye binding specifically double-stranded DNA, was added to each sample, in order to determine the viability of the analyzed U937 cells. Damaged, propidium iodide-labeled cells were excluded from the analysis.

plasmin = assay: Sensitivity to the tissue protease plasmin (HPLC); type: in vitro ADME; conditions: 0.05 U plasmin, 37° C., 30 min, pH 7.5
Protocol: The sensitivity of peptides against the attack of various proteases of the digestive tract was determined in vitro using purified enzymes under suitable buffer conditions. In general, 10 μg of peptide were incubated in a 100 μl volume with 2 μg of protease at 37° C. for 30 min under the buffer conditions for the activity controls as stated by the manufacturer. After incubation and dilution with 300 μl of H2O, the mixtures were analyzed directly, without prepurification via a precolumn, by HPLC using a 20-60% gradient of H2O, 0.1% trifluoroacetic acid and acetonitrile, 0.1% trifluoroacetic acid.
Pepsin (Sigma, Deisenhofen, Germany) was incubated with peptides in 52 mM HCl. Incubations with trypsin (Sigma) were carried out in 63 mM sodium phosphate pH 7.6. Chymotrypsins α, β, γ,δ (ICN) were incubated in 50 mM CaCl2 and 40 mM Tris/HCl pH 7.8. This was followed by incubating with bacteriae proteinase K in unbuffered water. The positive control used was the *peptide cyclo[19,31]-uPA16-32 which corresponds to the original sequence of the uPA omega loop except for the cysteine bridge. The peptide sensitivity against the tissue protease plasmin (Sigma) was assayed in mixtures with 10 or 5 μg of peptides and 0.05 U of plasmin in 100 μl of 200 mM sodium phosphate pH 7.5 at 37° C. and a 30 min incubation period.
FIG. 5 depicts HPLC profiles of peptide variants prior to (top profiles) and after (bottom profiles) incubation with plasmin. Part (A) of the figure depicts the unaltered lead structure cyclo[21,29][D-Cys^21Cys^29]-uPA21-30 with lysine at position 23, (B) the ornithine-substituted variant cyclo[21,29][D-Cys^21Orn^23Cys^29]-uPA21-30, (C) the diaminobutyric acid-substituted variant cyclo[21,29][D-Cys^21Dab^23Cys^29]-uPA21-30, (D) the diaminopropionic acid-substituted variant cyclo[21,29][D-Cys^21Dap^23Cys^29]-uPA21-30, (E) the norleucine-substituted variant cyclo[21,29][D-Cys^21Nle^23Cys^29]-uPA21-30 and (F) the arginine-substituted variant cyclo[21,29][D-Cys^21Arg^23Cys^29]-uPA21-30. The protease plasmin appears in the bottom profiles in each case at approx. 17.5 min.

[1] = Peptide stability in human serum (HPLC); type: in vitro ADME; conditions: 37° C., 20.5 h
Protocol: (§1) The stability of uPA-derived peptides in human serum or complete blood was assayed in vitro.
Human sera were prepared by allowing venous blood to coagulate without anti-coagulant in polypropylene tubes at 37° C. for 45 min. The clots adhering to the vessel wall were removed using a plastic stick and removed by centrifugation at 1200×g at room temperature for 12 min. The serum in the supernatant was removed and either used freshly for stability studies or frozen in aliquots at −20° C. for further use.
(§2) For stability studies in human complete blood, coagulation of venous blood was inhibited by heparin sodium (1 000 IU per 10 ml of complete blood), and the blood was used freshly. The peptides to be tested were added to the body fluids in the form of peptide-mixture stock solutions (≧1 μg per peptide in H2O) at a concentration of 5 μg/100 μl of serum or 200 μl of complete blood (per peptide) and incubated at 37° C. for various times. Prior to HPLC analysis, complete blood incubations were centrifuged at 16 000×g at room temperature for 5 min and the plasma in the supernatant was removed.
Sera and plasmas were prepurified via HLB precolumns (Waters GmbH, Oasis HLB extraction cartridge 1 cm^3/30 mg) prior to HPLC analysis. For this purpose, 100 μl of liquid were diluted with PBS to 1 ml and applied to said HLB precolumns equilibrated with 1 ml of 100% methanol and 1 ml of H2O. The columns were washed with 1ml of 5% methanol in H2O and eluted with 1 ml of 100% methanol. The first 200 μl (4 drops) of the eluate were discarded as void volume. The next 500 μl of eluate were diluted with 500 μl of PBS and analyzed by HPLC. […]
The stability of the peptides inhuman serum (FIG. 4a) was studied by adding a mixture of in each case 12.5 μg of the peptides to about 250 μl of serum. 100 μl thereof were diluted with PBS to 1 ml, prepurified on an HLB precolumn and analyzed immediately by HPLC (middle profile). A further 100 μl were analyzed after 20.5 h of incubation at 37° C. […] As a control, in each case 5 μg of the peptides were admixed with 1 ml of PBS and analyzed (top profile). […]

[2] = Peptide stability in heparinized human complete blood (HPLC); type: in vitro ADME; conditions: for stability in heparinized human blood: 37° C., 20.5 h, HPLC of plasma; for distribution between plasma and blood cells: heparinized human blood, peak integrals versus PBS control
Protocol: as §1, §2
Sera and plasmas were prepurified via HLB precolumns (Waters GmbH, Oasis HLB extraction cartridge 1 cm^3/30 mg) prior to HPLC analysis. For this purpose, 100 μl of liquid were diluted with PBS to 1 ml and applied to said HLB precolumns equilibrated with 1 ml of 100% methanol and 1 ml of H2O. The columns were washed with 1ml of 5% methanol in H2O and eluted with 1 ml of 100% methanol. The first 200 μl (4 drops) of the eluate were discarded as void volume. The next 500 μl of eluate were diluted with 500 μl of PBS and analyzed by HPLC. The remaining 300 μl of the eluate were discarded. HPLC analysis was carried out using a YMC-5 C18 analytical column and a 20-60% gradient of H2O, 0.1% trifluoroacetic acid and acetonitrile, 0.1% trifluoroacetic acid over 30 min and detecting the analytes at 220 nm.
The stability in heparinized human blood (FIG. 4b) was studied by adding 750 μl of freshly prepared heparinized human blood to 37.5 μg of the peptides. Immediately thereafter, 375 μl were removed by centrifugation. 100 μl of the plasma supernatant were analyzed (middle profile). The remaining 375 μl were incubated with gentle agitation at 37° C. for 20.5 h and then analyzed (bottom profile). As a control, 5 μg of the peptides had already been admixed with 1 ml of PBS and analyzed (top profile).

CC[C@H](C)[C@@H]1NC(=O)[C@H](CC(N)=O)NC(=O)[C@H](CO)NC(=O)[C@H](Cc2ccccc2)NC(=O)[C@H](Cc2ccc(O)cc2)NC(=O)[C@H](CCCCN)NC(=O)[C@H](CC(N)=O)NC(=O)[C@@H](N)CSSC[C@@H](C(=O)N[C@@H](Cc2c[nH]c3ccccc23)C(=O)O)NC1=O [cyclo[21,29][Cys^21,29]-uPA21-30, reference compound] (H-CNKYFSNICW-OH; disulfide 1-9; N-terminus and C-terminus assumed)
IC50 (uPAR): 2.26 µM | affinity/activity for uPAR lower than that of ATF (uPAR): hundred-fold lower

CC[C@H](C)[C@@H]1NC(=O)[C@H](CC(N)=O)NC(=O)[C@H](CO)NC(=O)[C@H](Cc2ccccc2)NC(=O)[C@H](Cc2ccc(O)cc2)NC(=O)[C@H](CCCCN)NC(=O)[C@H](CC(N)=O)NC(=O)[C@H](N)CSSC[C@@H](C(=O)N[C@@H](Cc2c[nH]c3ccccc23)C(=O)O)NC1=O [cyclo[21,29][D-Cys^21,Cys^29]uPA21-30] (H-[dC]NKYFSNICW-OH; disulfide 1-9; N-terminus and C-terminus assumed)
stability against plasmin (plasmin): a new unknown peak appeared | IC50 (uPAR): 0.078 µM | affinity/activity for uPAR lower than that of ATF (uPAR): 4 | stability in human serum [1]: unaltered | stability in heparinized human blood [2]: stable | distribution between plasma and blood cells [2]: distributed mainly in the plasma

CC[C@H](C)[C@@H]1NC(=O)[C@H](CC(N)=O)NC(=O)[C@H](CO)NC(=O)[C@@H]2Cc3ccccc3CN2C(=O)[C@H](Cc2ccc(O)cc2)NC(=O)[C@H](CCCCN)NC(=O)[C@H](CC(N)=O)NC(=O)[C@H](N)CSSC[C@@H](C(=O)N[C@@H](Cc2c[nH]c3ccccc23)C(=O)O)NC1=O [cyclo[21,29][D-Cys^21,Tic^25,Cys^29]-uPA21-30] (H-[dC]NKY[Tic]SNICW-OH; disulfide 1-9; N-terminus assumed)
stability in human serum [1]: unaltered | stability in heparinized human blood [2]: stable | distribution between plasma and blood cells [2]: distributed mainly in the plasma

CC[C@H](C)[C@@H]1NC(=O)[C@H](CC(N)=O)NC(=O)[C@H](CO)NC(=O)[C@H](Cc2ccccc2)NC(=O)[C@H](Cc2ccc(O)cc2)NC(=O)[C@H](CCCNC(=N)N)NC(=O)[C@H](CC(N)=O)NC(=O)[C@H](N)CSSC[C@@H](C(=O)N[C@@H](Cc2c[nH]c3ccccc23)C(=O)O)NC1=O [cyclo[21,29][D-Cys^21Arg^23Cys^29]-uPA21-30] (H-[dC]NRYFSNICW-OH; disulfide 1-9; N-terminus assumed)
stability against plasmin (plasmin): plasmin-sensitive

CC[C@H](C)[C@@H]1NC(=O)[C@H](CC(N)=O)NC(=O)[C@H](CO)NC(=O)[C@H](Cc2ccccc2)NC(=O)[C@H](Cc2ccc(O)cc2)NC(=O)[C@H](CCN)NC(=O)[C@H](CC(N)=O)NC(=O)[C@H](N)CSSC[C@@H](C(=O)N[C@@H](Cc2c[nH]c3ccccc23)C(=O)O)NC1=O [cyclo[21,29][D-Cys^21Dab^23Cys^29]-uPA21-30] (H-[dC]N[Dab]YFSNICW-OH; disulfide 1-9; N-terminus assumed)
stability against plasmin (plasmin): stable against plasmin

CC[C@H](C)[C@@H]1NC(=O)[C@H](CC(N)=O)NC(=O)[C@H](CO)NC(=O)[C@H](Cc2ccccc2)NC(=O)[C@H](Cc2ccc(O)cc2)NC(=O)[C@H](CN)NC(=O)[C@H](CC(N)=O)NC(=O)[C@H](N)CSSC[C@@H](C(=O)N[C@@H](Cc2c[nH]c3ccccc23)C(=O)O)NC1=O [cyclo[21,29][D-Cys^21Dap^23Cys^29]-uPA21-30] (H-[dC]N[Dap]YFSNICW-OH; disulfide 1-9; N-terminus assumed)
stability against plasmin (plasmin): two small unidentified peaks appeared

CCCC[C@@H]1NC(=O)[C@H](CC(N)=O)NC(=O)[C@H](N)CSSC[C@@H](C(=O)N[C@@H](Cc2c[nH]c3ccccc23)C(=O)O)NC(=O)[C@H]([C@@H](C)CC)NC(=O)[C@H](CC(N)=O)NC(=O)[C@H](CO)NC(=O)[C@H](Cc2ccccc2)NC(=O)[C@H](Cc2ccc(O)cc2)NC1=O [cyclo[21,29][D-Cys^21Nle^23Cys^29]-uPA21-30] (H-[dC]N[Nle]YFSNICW-OH; disulfide 1-9; N-terminus assumed)
stability against plasmin (plasmin): stable against plasmin

CC[C@H](C)[C@@H]1NC(=O)[C@H](CC(N)=O)NC(=O)[C@H](CO)NC(=O)[C@H](Cc2ccccc2)NC(=O)[C@H](Cc2ccc(O)cc2)NC(=O)[C@H](CCCN)NC(=O)[C@H](CC(N)=O)NC(=O)[C@H](N)CSSC[C@@H](C(=O)N[C@@H](Cc2c[nH]c3ccccc23)C(=O)O)NC1=O [cyclo[21,29][D-Cys^21Orn^23Cys^29]-uPA21-30] (H-[dC]N[Orn]YFSNICW-OH; disulfide 1-9; N-terminus assumed)
stability against plasmin (plasmin): stable against plasmin

cyclo[19,31]-uPA16-32 [reference compound]
stability in human serum [1]: could no longer be detected | stability in heparinized human blood [2]: instability | part of the amount of peptide added degraded ([2]; complete blood, 10-15 min between addition and prepurification): > 80%
